Data on three compounds can be found in publication PMC12282092, “Discovery of a non-nucleoside inhibitor that binds to a novel site in the palm domain of the respiratory syncytial virus RNA-dependent RNA polymerase” (Journal of Virology, 2025).

Data set [1] addresses Full-length RSV P (1-241) protein (human RSV). The experiment in a line: cryo-EM structure; full-length RSV L+P complex with compound 22; 0.8 mg/mL on grids; global resolution 2.72 Å.
The target of data set [2] is T1, RSV L+P (Human respiratory syncytial virus A, UniProt P28887).
T1 construct: Biochemical activity of 1 and 22 against full-length RSV L+P; Twin-Strep-tag (N); made in house; host or cells: Sf9 insect cells (baculovirus, pFastBac Dual)
T1 sequence (P03421 whole entry): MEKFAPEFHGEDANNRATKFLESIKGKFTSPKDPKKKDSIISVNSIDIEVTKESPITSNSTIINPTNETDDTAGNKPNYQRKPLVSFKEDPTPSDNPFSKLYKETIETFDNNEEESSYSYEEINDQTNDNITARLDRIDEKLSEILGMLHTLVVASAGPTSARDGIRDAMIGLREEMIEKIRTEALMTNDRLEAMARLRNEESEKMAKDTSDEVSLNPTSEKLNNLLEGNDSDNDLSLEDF
T1 sequence (P28887 whole entry): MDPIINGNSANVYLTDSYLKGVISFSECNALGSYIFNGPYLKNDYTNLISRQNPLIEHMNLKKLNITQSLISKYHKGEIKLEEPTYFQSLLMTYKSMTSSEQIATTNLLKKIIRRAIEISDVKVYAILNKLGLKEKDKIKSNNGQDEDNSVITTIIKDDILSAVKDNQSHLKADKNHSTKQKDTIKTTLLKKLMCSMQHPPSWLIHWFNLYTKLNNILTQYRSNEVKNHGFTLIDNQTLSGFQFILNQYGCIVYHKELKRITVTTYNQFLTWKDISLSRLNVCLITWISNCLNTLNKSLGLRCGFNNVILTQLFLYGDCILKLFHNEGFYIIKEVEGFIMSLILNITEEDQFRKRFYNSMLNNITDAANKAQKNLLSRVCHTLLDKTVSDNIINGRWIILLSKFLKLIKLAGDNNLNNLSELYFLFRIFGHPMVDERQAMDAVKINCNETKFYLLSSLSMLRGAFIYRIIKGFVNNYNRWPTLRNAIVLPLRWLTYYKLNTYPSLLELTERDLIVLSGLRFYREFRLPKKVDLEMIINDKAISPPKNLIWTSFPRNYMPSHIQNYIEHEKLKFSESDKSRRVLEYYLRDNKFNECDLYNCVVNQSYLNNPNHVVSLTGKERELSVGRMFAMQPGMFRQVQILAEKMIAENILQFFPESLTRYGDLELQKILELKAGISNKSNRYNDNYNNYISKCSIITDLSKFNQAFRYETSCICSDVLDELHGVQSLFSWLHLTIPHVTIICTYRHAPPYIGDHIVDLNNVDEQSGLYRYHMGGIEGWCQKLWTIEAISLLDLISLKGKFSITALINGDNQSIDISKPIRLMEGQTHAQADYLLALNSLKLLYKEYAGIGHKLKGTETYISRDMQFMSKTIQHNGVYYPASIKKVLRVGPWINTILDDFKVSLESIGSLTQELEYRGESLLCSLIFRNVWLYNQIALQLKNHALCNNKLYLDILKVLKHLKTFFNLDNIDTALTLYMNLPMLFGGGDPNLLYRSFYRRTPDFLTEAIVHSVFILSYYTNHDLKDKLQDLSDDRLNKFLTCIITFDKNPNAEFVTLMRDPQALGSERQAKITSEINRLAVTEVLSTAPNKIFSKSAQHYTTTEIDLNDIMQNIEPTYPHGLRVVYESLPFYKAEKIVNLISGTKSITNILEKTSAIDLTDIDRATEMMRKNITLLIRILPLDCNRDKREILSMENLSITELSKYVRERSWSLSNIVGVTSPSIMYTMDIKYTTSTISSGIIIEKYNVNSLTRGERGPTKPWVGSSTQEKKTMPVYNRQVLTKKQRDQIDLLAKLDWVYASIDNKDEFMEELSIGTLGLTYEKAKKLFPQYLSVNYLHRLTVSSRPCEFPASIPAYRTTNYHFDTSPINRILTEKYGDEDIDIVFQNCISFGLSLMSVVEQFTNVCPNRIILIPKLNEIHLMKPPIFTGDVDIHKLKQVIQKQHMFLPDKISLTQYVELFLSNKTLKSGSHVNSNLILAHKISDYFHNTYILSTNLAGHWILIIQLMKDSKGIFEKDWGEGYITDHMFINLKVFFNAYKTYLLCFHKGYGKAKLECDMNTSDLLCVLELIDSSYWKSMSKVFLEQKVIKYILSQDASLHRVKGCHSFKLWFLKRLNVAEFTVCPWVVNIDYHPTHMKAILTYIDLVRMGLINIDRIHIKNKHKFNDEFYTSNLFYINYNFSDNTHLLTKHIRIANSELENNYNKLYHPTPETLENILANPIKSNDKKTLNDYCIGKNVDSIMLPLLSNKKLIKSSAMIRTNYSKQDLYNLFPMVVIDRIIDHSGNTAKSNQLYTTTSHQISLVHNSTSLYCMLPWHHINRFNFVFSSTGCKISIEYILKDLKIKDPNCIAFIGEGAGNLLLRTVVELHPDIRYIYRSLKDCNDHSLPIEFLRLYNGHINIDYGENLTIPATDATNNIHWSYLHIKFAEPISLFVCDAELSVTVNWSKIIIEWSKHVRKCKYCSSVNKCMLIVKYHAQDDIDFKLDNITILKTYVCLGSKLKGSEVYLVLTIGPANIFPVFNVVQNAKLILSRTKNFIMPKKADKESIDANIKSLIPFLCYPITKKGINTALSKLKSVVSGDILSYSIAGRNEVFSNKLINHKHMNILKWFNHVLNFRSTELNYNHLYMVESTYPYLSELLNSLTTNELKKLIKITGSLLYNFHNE
The experiment in a line: Pyrophosphate luminescence detection assay, full-length RSV L+P. As to conditions: pyrophosphate luminescence detection assay; for Emax: read-out: Biochemical Emax. The data set is classed as biochemical.
Method: Working solutions (3×) of RSV L+P (60 nM), substrate (30 µM each of GTP, CTP, UTP, 300 µM ATPαS [Jena Bioscience], 15 µM RNA template TrC-25), detection reagents (6 nM Luciferase, 900 µM luciferin, 3 U/µL ATP Sulfurylase [BioVision], 15 µM adenosine phosphosulfate [APS], 3 mM coenzyme A), were prepared in complete assay buffer. Compounds were dissolved in dimethyl sulfoxide (DMSO) and dispensed to white, 1536-well cyclic olefin copolymer (COC) plates (Corning, 9145BC) using an Echo Acoustic Liquid Handler (Beckman Coulter, San Jose, CA). Substrate (1 µL) and detection reagents (1 µL) were dispensed using a Multidrop Combi Dispenser (ThermoFisher, Waltham, MA), followed by enzyme (1 µL) to initiate the reaction. Final screening concentrations were 20 nM RSV L+P, 10 µM GTP/CTP/UTP, 100 µM ATPαS, 5 µM TrC-25, 2 nM Luciferase (Promega), 300 µM luciferin (Promega), 1 U/µL ATP sulfurylase, 5 µM APS, and 1 mM CoA. […] Luminescence was detected using the PHERAStar FSX (BMG Labtech, Ortenberg, Germany).

Data set [3] deals with coupled enzyme system (ATP sulfurylase, luciferase). The experiment in a line: Pyrophosphate detection counterscreen. As to conditions: read-out: PPi counterscreen IC50. The format is biochemical. The method, then: To determine if compounds were interfering with the sulfurylase or luciferase in the pyrophosphate luminescence detection assay, a counterscreen was developed to monitor activity of the coupling system. Working solutions (3×) of substrate and detection reagents were prepared as before and added to 1536-well white, COC plates containing compound titrations. Then, 1 µL of a 3× solution of 4.5 µM sodium pyrophosphate (Sigma, P8010) was dispensed with the Multidrop Combi to initiate the reaction. […] Luminescence was detected using the PHERAStar FSX. […] Figures were prepared with GraphPad Prism.
(In general: Counterscreens check selectivity or assay interference.)

Data set [4] deals with rgRSV224 virus (RSV A2) in HeLa cells. Briefly: HeLa cell rgRSV224 eGFP reporter viral proliferation assay. The format is cell-based. As to conditions: RSV eGFP phenotypic assay in HeLa cells; for EC50: MOI 1, 72 h, n ≥ 2, read-out: Cellular EC50; for Emax: read-out: Cellular Emax. The method, then:
(§1) Compound serial dilutions (9 point, fourfold) were prepared in DMSO, and 200 nL was transferred to black, 384-well, clear-bottom microtiter plates (Corning, Amsterdam, The Netherlands) via acoustic drop ejection ([36], [50]). […] Then, 20 µL of a HeLa cell suspension (3,000 cells/well) was added with a Multidrop Combi, and cells were incubated at 37°C in a 5% CO2 atmosphere. After 72 h, GFP expression was quantified using an EnVision Multimode Plate Reader (Perkin Elmer, Zaventem, Belgium), and data were normalized to untreated and media-only (no virus) controls. Cytotoxicity was determined in parallel using the ATPlite kit (Perkin Elmer, Zaventem, Belgium). Luminescence was measured in white, 384-well microtiter plates (Corning) on a ViewLux uHTS Microplate Imager apparatus (PerkinElmer, Zaventem, Belgium), and cellular ATP content was quantified by normalizing to untreated and media-only (no cell) controls. […] Figures were prepared with GraphPad Prism.

Data set [5] is described as follows: HeLa cytotoxicity assay (ATPlite). Conditions: human, HeLa cells. The method, then:
as §1
(In general: Cellular ATP, detected with luciferase, serves as a proxy for viable cell number.)

Data set [6] concerns HeLa cells. Briefly: HeLa cytotoxicity assay (ATPlite). As to conditions: HeLa cells. As to the method:
as §1

Data set [7] has as its target human mitochondrial RNA polymerase (POLRMT) (Homo sapiens, UniProt O00411). Briefly: POLRMT assay.
Data set [8] is described as follows: Metabolic stability in liver microsomes. Conditions: in vitro intrinsic clearance in human liver microsomes, n = 1. On the technique in general: Liver microsomes are a subcellular fraction often used to study metabolism.
Data set [9] addresses T1, RSV L+P. The experiment in a line: SPR assay. The format is binding. As to conditions: 25°C.
Method: A Biacore Series S SA (Cytiva) chip is first derivatized by a 60 s injection of 50 µg/mL Tris NTA-biotin (synthesized in-house). The chip was further conditioned by a 60 s injection of 350 mM EDTA (Cytiva, 28995043) followed by a 60 s injection of 0.5 mM NiCl2 (Cytiva, 28995043). Purified human, recombinant His-tagged RSV L+P protein (C-terminal 8× His) was captured via a 1,200 s injection at 30 µg/mL to obtain immobilization levels of 8,000–9,000 RU. The surface was then blocked with a 60 s injection of 100 µM PEG-biotin (Thermo Scientific). The experiments were performed at 25°C, using a Biacore 8K+ (Cytiva) and running buffer: 10 mM HEPES, 300 mM NaCl, 10 mM MgCl2, pH 7.4, 5% glycerol, 2% DMSO, 0.005% p20, 0.5 mM TCEP. […] Reference and buffer-blank subtracted data were analyzed with the Biacore 8K Insight Evaluation Software and fit to a 1:1 Langmuir model to obtain KD values and binding kinetics.
A further data set deals with T2, RSV L+P-JNJ-8003 complex (Human respiratory syncytial virus A, UniProt P28887).
T2 construct: a biophysical SPR assay was established using full-length RSV L+P complex; Twin-Strep-tag (N); made in house; host or cells: Sf9 insect cells (baculovirus)
T2 sequence (P28887 whole entry): as above
T2 sequence (P03421 whole entry, further chain): as the sequence (P03421 whole entry) above
Briefly: SPR A-B-A competition with capping domain binder JNJ-8003. Conditions: 60 nM JNJ-8003 competitor. The data set is classed as binding. As to the method:
(§2) Here, the competitor was held at a constant concentration (60 nM for JNJ-8003 and 150 nM for JNJ-7184) during baseline acquisition, association, and dissociation of the test compound.
(§3) The Biacore A-B-A injection method was used to assess compound binding competition. RSVpol was immobilized as above. […] Dissociation of any bound 22 was then measured for 500 s in the presence of a competitor. The temperature was 25°C, and the flow rate was kept at 30 µL/min.

Another data set concerns the target T3, RSV L+P-JNJ-7184 complex (Human respiratory syncytial virus A, UniProt P28887).
T3 construct: a biophysical SPR assay was established using full-length RSV L+P complex; Twin-Strep-tag (N); made in house; host or cells: Sf9 insect cells (baculovirus)
Briefly: SPR A-B-A competition with connector domain binder JNJ-7184. The format is binding. Conditions: 150 nM JNJ-7184 competitor. As to the method: as §2, §3

In data set [10] the test system is RSV replicon in APC-126 cells. The experiment in a line: APC-126 minireplicon assay. The format is cell-based. Conditions: human respiratory syncytial virus, APC-126, 72 h. The method, then: (§4) A proprietary BHK-based cell line, APC-126, harboring the RSV replicon, was obtained from Apath (New York, USA) and cultured in DMEM/Ham’s F-12 50/50, supplemented with 10% (vol/vol) FBS (Gibco), 1% (vol/vol) penicillin-streptomycin (Gibco), 1% (vol/vol) MEM non-essential amino acids (Gibco), 5% (vol/vol) Tryptose Phosphate Broth (Sigma-Aldrich), and 10 µg/mL blasticidin (Invitrogen) at 37°C in a humidified 5% CO2 incubator ([36]). Cells were plated (3,500 cells/well) in white, 96-well, clear-bottom plates (Corning) and incubated for 24 h. Compound serial dilutions (9 point, threefold) were prepared in DMSO and diluted 10-fold in culture media before treating cells (final [DMSO] = 1% [vol/vol]). […] In parallel, cytotoxicity was measured using CellTiter-Glo (Promega) under the same conditions. […] Figures were prepared with GraphPad Prism.

Data set [11] in a line: APC-126 cytotoxicity assay (CellTiter-Glo). The data set is classed as cell-based. As to conditions: hamster; APC-126, 72 h; read-out: Replicon CC50. As to the method: as §4
The target of data set [12] is T1, RSV L+P. Briefly: De novo RNA synthesis assay (TrC-14, +3 site). As to conditions: TrC-14 template. The format is biochemical. As to the method: The reaction was quenched by an equal volume of gel loading buffer consisting of 90% formamide and 50 mM EDTA. Samples were heated to 95°C for 5 min, resolved on a 22.5% polyacrylamide urea sequencing gel at 80 W, and then transferred to Whatman cellulose chromatography paper (Millipore Sigma). The gel was dried for 1 h on a gel dryer (Bio-Rad), exposed to a phosphor screen, and imaged using a Typhoon phosphorimager (GE Healthcare).

The target of data set [13] is T1, RSV L+P. Briefly: Single-nucleotide incorporation (primer extension) assays. The data set is classed as biochemical. As to conditions: 50 µM 22, primers AC, ACG, ACGA, ACGAG. As to the method:
Reactions were initiated by the addition of 100 nM [α-^32P]NTP (3,000 Ci/mmol) tracer and run for an additional 30 min before quenching with an equal volume of gel loading buffer (90% formamide, 50 mM EDTA, 0.05% Xylene Cyanol and Bromophenol Blue). Gel images were obtained and processed as described for the de novo assay, and data were normalized to untreated controls to determine percent inhibition.

Data set [14] deals with T1, RSV L+P. Briefly: Mode of inhibition by progress curve analysis. The data set is classed as biochemical. The method, then: To determine the mode of inhibition, progress curve analysis was carried out with the full-length complex.
The target in data set [15] is T1, RSV L+P. The experiment in a line: Yonetani-Theorell mutual exclusivity analysis. The format is biochemical.
Method: Here, matrix titrations of the two inhibitors were carried out, and initial rates were determined for each inhibitor combination. Data were fitted to the Yonetani-Theorell equation (Supp. equation S1) to determine the interaction constant, γ. […] When γ > 1, binding is antagonistic, and as γ approaches infinity, the ligands are considered mutually exclusive. Conversely, when γ < 1, binding is synergistic.
In the next data set the test system is RSV-A/Long. The experiment in a line: microbe, parasite or virus in culture. The data set is classed as cell-based. Conditions: human respiratory syncytial virus, HeLa cells, RT-qPCR.
In another data set the test system is RSV-A/A2. The experiment in a line: microbe, parasite or virus in culture. As to conditions: human respiratory syncytial virus; RSV-A/A2, HeLa cells, RT-qPCR. The data set is classed as cell-based.
For another data set, the system named is RSV-B/Wash/18537. The experiment in a line: microbe, parasite or virus in culture. The format is cell-based. Conditions: human respiratory syncytial virus; RSV-B/Wash/18537, HeLa cells, RT-qPCR.
A further data set concerns RSV-B/05_036549. The experiment in a line: microbe, parasite or virus in culture. The data set is classed as cell-based. Conditions: human respiratory syncytial virus; RSV-B/05_036549, HeLa cells, RT-qPCR.
The subject of data set [16] is HeLa cells. As to conditions: HeLa cytotoxicity.
The next data set in a line: in vitro. Conditions: human.
Setting [17] is: human respiratory syncytial virus, HeLa, 72 h.
The mark [18] stands for this setting: human respiratory syncytial virus.

Like-named read-outs stand apart in the source and are kept apart here.

As for “Full-length RSV P (1-241) protein (natural protein)”, in data set [1], the stoichiometry N – broadly, the number of molecules, sites or subunits per partner or assembly – is 4.
In the case of `N#Cc1ncc(N2CCC3(CC2)C(=O)Nc2ccc(Br)cc23)cc1Cl` [Compound 1, 5-(5-bromo-2-oxospiro[indoline-3,4'-piperidin]-1'-yl)-3-chloropicolinonitrile], the figures for the Emax (at RSV L+P [2]; in data set [4] (setting [18])) were 110% and 94.6%, respectively. Further, the IC50 in [3] and in data set [7] was > 100000 nM each time. In addition, in data set [4] (setting [17]), the concentration giving a half-maximal response (EC50) – broadly, the concentration at which the effect is half-maximal – is 6680 nM. For the same compound, the CC50 at 72 h in data set [5] is > 3800 nM. In the data set on HeLa cells [6], the “Cytotoxicity Emax” value is 63.1%. Moreover, the “POLRMT IC50” value in data set [7] (8 nM POLRMT) is “no activity”. In data set [8], the “HLM CLint” value is on record as <7.7 µL/min/mg microsomal protein.
As for `CN1C(=O)C2(CCN(c3cnc(C#N)c(Cl)c3)CC2)c2cc(Br)ccc21` [Compound 22, 5-(5-bromo-1-methyl-2-oxospiro[indoline-3,4'-piperidin]-1'-yl)-3-chloropicolinonitrile], the IC50 (in general, the concentration at which inhibition is half-maximal) is 270 nM at RSV L+P [2] (full-length RSV L+P, n ≥ 2, read-out: Biochemical IC50); 290 nM at RSV L+P [12] (+3 site, read-out: IC50 of de novo pppGA (pppGpA) formation); 480 nM on RSV L+P [12] (IC50 of 11-mer product); > 100000 nM in [7]. For the same compound, the Emax on RSV L+P [2] was found to be 105%; in data set [4] (setting [18]) it was 94%. The same compound gave an SPR kd on RSV L+P [9] (immobilized RSV L+P) of 0.0609 s⁻¹. In addition, the Kd (as a rule, the free concentration of one partner at which half of the binding sites on the other are occupied at equilibrium, for simple one-to-one binding) at RSV L+P [9] (immobilized full-length RSV L+P) was determined as 470 nM; at RSV L+P-JNJ-8003 complex (read-out: SPR KD in the presence of JNJ-8003), 530 nM; on RSV L+P-JNJ-7184 complex (read-out: SPR KD in the presence of JNJ-7184) it was 520 nM. Also, the “SPR ka in the presence of JNJ-8003” value on RSV L+P-JNJ-8003 complex was 119000 M⁻¹ s⁻¹. Further, at RSV L+P-JNJ-8003 complex, the “SPR kd in the presence of JNJ-8003” value was determined as 0.0628 s⁻¹. Besides, the “SPR ka in the presence of JNJ-7184” value on RSV L+P-JNJ-7184 complex is 140000 M⁻¹ s⁻¹. On RSV L+P-JNJ-7184 complex, the “SPR kd in the presence of JNJ-7184” value was determined as 0.0725 s⁻¹. The EC50 was 2380 nM in data set [4]; 2280 nM in [4] (setting [17]); 2220 nM in data set [10]; 970 nM in the data set with RSV-A/Long; 1100 nM in the data set on RSV-A/A2; 2700 nM with RSV-B/Wash/18537. A half-maximal response in the data set with RSV-B/05_036549 (EC50) required 1000 nM. The CC50 at 72 h in data set [5] and in data set [11] was > 50000 nM throughout. Moreover, in the data set on HeLa cells [6], the “Cytotoxicity Emax” value amounted to 12.8%. Further, at RSV L+P [12] (+3 site), the “maximal inhibition of pppGA formation” value is listed as 85%. Also, on RSV L+P [12], the “maximal inhibition of 11-mer product” value came out at 71%. For the same compound, at RSV L+P [13], the “inhibition of primer extension, TrC-14 template” value is given as “inhibited”. Moreover, the “α (mixed model inhibition) with respect to UTP” value at RSV L+P [14] (mixed noncompetitive/uncompetitive) was 0.33 ± 0.27. In addition, the “α with respect to TrC-25 RNA template” value at RSV L+P [14] (noncompetitive) was 1.1 ± 0.6. In addition, the “Yonetani-Theorell interaction constant γ” value stood at 1.1 ± 0.2 on RSV L+P [15] (22 titrated with capping domain inhibitor compound 23) and 0.88 ± 0.72 at RSV L+P [15] (22 titrated with connector domain inhibitor compound 24). The CC50 with HeLa cells [16] (line RSV-A/A2), in the data set on HeLa cells [16] (line RSV-A/Long), in the data set with HeLa cells [16] (line RSV-B/Wash/18537) and in “in vitro” was > 50000 nM each time. Also, the “HLM CLint” value in [8] is listed as 10.9 µL/min/mg microsomal protein.
